Results from PubChem BioAssay (NCI).
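Grown in 96-well plates, cells were treated for 48 hours with each compound at five concentrations. Insufficient inhibition: endpoint recorded as highest concentration tested. TGI marks complete inhibition of growth.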

Legend:
Assay in all cases: NCI tumour cell line growth inhibition, 48 h
[1] = system: DMS 114 small cell lung
[2] = system: KM20L2 colon
[3] = system: LXFL 529 NSCLC
[4] = system: M19-MEL melanoma
[5] = system: SNB-78 CNS
[6] = system: DU-145 prostate
[7] = system: PC-3 prostate
[8] = system: T-47D breast

Structure (SMILES) | TGI [1] [µM] | TGI [2] [µM] | TGI [3] [µM] | TGI [4] [µM] | TGI [5] [µM] | TGI [6] [µM] | TGI [7] [µM] | TGI [8] [µM]
Cc1c(C(=O)/C=C/c2ccccc2[N+](=O)[O-])[n+](=O)c2ccccc2n1[O-] | 18 | 18 | 16.6 | 20.5 | 70.7 | – | – | –
CCOC(=O)C1(Cc2ccc3ccccc3c2)CCCCC(=O)N1 (stereo not drawn) | 72.9 | > 100 | > 100 | > 100 | > 100 | – | – | –
O=S1CSSC1 | 19.1 | 52.5 | 32.4 | 14.4 | 62 | – | – | –
CC1(C)CC(=O)C(CC2C(=O)c3ccccc3C2=O)C(=O)C1 | > 100 | > 100 | > 100 | > 100 | > 100 | – | – | –
C=C1C(=O)C23C(O)C1CC[C@H]2C12CCCC(C)(COC(C)=O)[C@H]1[C@H](O)[C@]3(O)OC2 (stereo partly drawn) | 4.35 | 3.01 | 1.69 | 4.69 | 2.96 | 16.2 | 3.78 | 9.59
COC(=O)C1C(=O)N(CCc2c[nH]c3ccccc23)C[C@@H]2CCC(=O)C[C@H]12 (stereo partly drawn) | > 100 | – | > 100 | > 100 | > 100 | – | – | –
Cc1ccccc1/C=C/C(=O)c1ccccc1 | 48 | 33.6 | 38.6 | 61 | 39.2 | – | – | –
CCCCCCC(C)CCCCCCCCCCC(=O)O (stereo not drawn) | > 100 | > 100 | > 100 | > 100 | – | – | – | –
COc1ccc(C2Oc3c(c(O)cc4c3[C@H](c3ccc(O)cc3O)[C@H](O)C(c3ccc(O)c(O)c3)O4)C[C@@H]2O)cc1O (stereo partly drawn) | > 100 | > 100 | > 100 | > 100 | > 100 | – | – | –
Cc1ccc(C)c(N2C(=O)C(=O)C(c3nc4ccccc4s3)C(=Nc3cccc4c(=O)[nH][nH]c(=O)c34)C2=O)c1 (stereo not drawn) | > 100 | > 100 | > 100 | – | – | – | – | –
C[C@]12C/C(=C/O)C(=O)C(O)=C1CC[C@@H]1C2CC[C@@]2(C)C1CC[C@@H]2O (stereo partly drawn) | 37.5 | 54.6 | 31.7 | 45.3 | 47.3 | – | – | –
Cc1c2ccncc2c(C)c2c1[nH]c1ccc(O)c(OCC(F)(F)F)c12 | 10.7 | 27.3 | 15.5 | – | 18.2 | – | – | –
Cn1c(=O)nc2n(-c3ccc(Cl)c(C(F)(F)F)c3)c3ccccc3nc-2c1=O | 40.6 | 73.9 | > 100 | 27.8 | > 100 | – | – | –
O=C(CC1(O)C(=O)Nc2c(Cl)ccc(Cl)c21)c1ccc(Cl)cc1Cl (stereo not drawn) | 37.4 | > 100 | 29.3 | 20.1 | > 100 | – | – | –
CC(=O)n1c(=O)c2cc3c(=O)n(-c4cccc(C#N)c4)c(=O)c3cc2c1=O | > 100 | > 100 | > 100 | > 100 | > 100 | – | – | –
